Measurements taken from patent US20250205252A1, “7-KETOLITHOCHOLIC ACID FOR USE IN THE TREATMENT OF GUT DYSBIOSIS AND AS A PREBIOTIC” (NZP UK Limited, priority 2022, published 2025).
Read-outs that look alike come from different tables or passages of the source.

Columns and labels:
[1] = test system: Bifidobacterium species; test: Batch culture fermentation of faecal slurry, flow-FISH enumeration (BIF); format: cell-based
[2] = test system: Atopobium-Coriobacterium; test: Batch culture fermentation of faecal slurry, flow-FISH enumeration (ATO); format: cell-based
[3] = test system: Desulfovibrionales and Dessulfuromonadales; test: Batch culture fermentation of faecal slurry, flow-FISH enumeration (DSV); format: cell-based
[4] = test system: Total bacteria; test: Batch culture fermentation of faecal slurry, flow-FISH enumeration (Total); format: cell-based; settings: 7-KLCA at 5 and 10 h, maltodextrin only at 5 h
[5] = test system: SCFAs acetate, propionate, butyrate and lactate; format: cell-based; settings: preliminary results from one donor, FIG. 3
[6] = test system: Clostridium histolyticum (Chis150); test: 3-stage gut model, flow-FISH enumeration, Clostridium histolyticum; format: cell-based; settings: FIG. 6
[7] = test system: bacterial metabolites lactate, acetate, butyrate, propionate and valerate; test: 3-stage gut model, bacterial metabolite quantification by GC-MS; format: cell-based
[8] = test system: Clostridium species; test: 3-stage gut model, bacterial composition by 16s rRNA sequencing, Clostridium; format: cell-based; settings: after treatment; from 5.6%
[9] = format: in vivo, CD-1 mice
Protocol: The study design: • CTRL 1 Mice on normal diet for 60 days (5 mice) • CTRL 2 Mice on normal diet with 7KLCA at 10 mg/kg for 60 days (5mice) • CTRL 3 Mice on normal diet for 30 days, then 30 days on a high glucose diet (5 mice) • Treated Mice on normal diet for 30 days, then 30 days on a high glucose diet with 7KLCA throughout the study (5 mice)
Standard diet (10.6% fat J/J, 29.0% protein J/J and 60.4% carbohydrate J/J). High glucose diet (10.5% fat J/J, 16.4% protein J/J and 73.1% carbohydrate J/J). For all experimental group, free accesses to tap water The animals were kept in group of 5 animals/sex/group/cage in Plexiglas cages.
Experiments were carried out in 8-12-week-old male CD-1 mice according to the guidelines for the safe use and care of experimental animals in accordance with the Italian D.L. no. 116 of 27 Jan. 1992 and associated guidelines in the European Communities Council (86/609/ECC and 2010/63/UE) including the 3Rs concept (Kilkenny et al, 2010; McGrath et al, 2015). Animals were housed with ad libitum access to food and water and maintained on a 12-hour light/dark cycle. Experimental study groups were randomized and blinded. The animals in the control groups were handled in an identical manner to the treated group using the respective vehicle and the same volume of administration. Tested item formulation or vehicle was administered by oral gavage. The body weight was recorded once before the assignment to the experimental groups, on the first day of administration, and then weekly during the treatment.
The dose of 7-KLCA used in this study was 10 mg/kg/day. The vehicle used was DMSO in saline solution (NaCl 0.9%), 1/3 w/w. 7-KLCA was solubilised in DMSO (1 part w/w) and then resuspended in saline solution (3 parts w/w). This solution (200 μl/mouse) was prepared freshly every day and was kept under magnetic stirring during the daily administration.
The body weight was recorded once before the assignment to the experimental groups, on the first day of administration, and then weekly.
General clinical observations were performed at least once a day, at the same hour. The health condition of the animals was recorded.
After overnight fasting, blood of the animals was collected in serum separator tubes. FIGS. 10 and 13 show the change in body weight for the mice in the study.

[10] = test system: Roseburia spp. (Rrec584); test: 3-stage gut model, flow-FISH enumeration, Roseburia; settings: across V1, V2 and V3; not statistically significant
[11] = test system: Streptococcus spp. (Strp); test: 3-stage gut model, flow-FISH enumeration, Streptococcus; settings: FIG. 6
[12] = test system: total bacteria (EUB-I-II-III); test: 3-stage gut model, flow-FISH enumeration, total bacteria; settings: for total bacteria (EUB-I-II-III) after treatment: proximal region (V1), 400 mg/day, 512 h (SS2)
[13] = test system: bacterial metabolites; test: 3-stage gut model, metabolite spectra analysis by 1H NMR; settings: V3 (distal colon)
[14] = test system: Bifidobacterium spp. (Bif164); test: 3-stage gut model, flow-FISH enumeration, Bifidobacterium
[15] = test system: Desulfovibrionales (DSV687); test: 3-stage gut model, flow-FISH enumeration, Desulfovibrionales; settings: FIG. 6
[16] = test system: Eubacterium rectale (Erec482); test: 3-stage gut model, flow-FISH enumeration, Eubacterium rectale; settings: across V1, V2 and V3; not statistically significant
[17] = test system: Bacteroides-Prevotella (BAC303); test: 3-stage gut model, flow-FISH enumeration, Bacteroides-Prevotella; settings: 400 mg/day, 512 h; for Bacteroides-Prevotella (BAC303) population numbers after treatment: transverse region (V2)
[18] = test system: Faecalibacterium prausnitzii (Fprau655); test: 3-stage gut model, flow-FISH enumeration, Faecalibacterium prausnitzii
[19] = test system: Faecalibacterium prausnitzii; test: 3-stage gut model, bacterial composition by 16s rRNA sequencing, F. prausnitzii; settings: after treatment
[20] = test system: Bifidobacterium spp.; test: 3-stage gut model, bacterial composition by 16s rRNA sequencing, Bifidobacterium; settings: after treatment, V3 (distal colon); lower than the baseline
[21] = test system: Eubacterium rectale; test: 3-stage gut model, bacterial composition by 16s rRNA sequencing, Eubacterium rectale; settings: after treatment, proximal region of the colon; before 4%
[22] = test system: Eubacterium eligens; test: 3-stage gut model, bacterial composition by 16s rRNA sequencing, Eubacterium eligens; settings: after treatment, 2% before
[23] = test system: Dialister pneumosintes; test: 3-stage gut model, bacterial composition by 16s rRNA sequencing, Dialister pneumosintes; settings: after treatment, before 7%
[24] = test system: Bacteroides xylanisolvens; test: 3-stage gut model, bacterial composition by 16s rRNA sequencing, Bacteroides xylanisolvens; settings: after treatment, transverse region; 2% before
[25] = V1, V2 and V3, not statistically significant
[26] = HGD+7KLCA vs CTRL 3 (HGD), day 60
[27] = normal diet 60 days, CTRL 2 vs CTRL 1

C[C@H](CCC(=O)O)[C@H]1CC[C@H]2[C@@H]3C(=O)C[C@@H]4C[C@H](O)CC[C@]4(C)[C@H]3CC[C@]12C [7-KLCA, 3α-hydroxy-7-oxo-5β-cholanic acid]
Bifidobacterium numbers ([1]; at T5, vessels containing 7-KLCA and maltodextrin): 7.45±0.16 Log10 CFU/mL | Bifidobacterium numbers ([1]; at T10, vessels containing 7-KLCA and maltodextrin): 7.55±0.21 Log10 CFU/mL | change in Bifidobacterium spp. (BIF) numbers, statistical significance ([1]; batch culture, 7-KLCA at 5 and 10 h): statistically significant increases | Bifidobacterium numbers ([1]; starting value (0 h), vessels containing 7-KLCA and maltodextrin): 6.48±0.14 Log10 CFU/mL | increases in pathogenic species Atopobium, Coriobacterium [2]: no increases | increases in pathogenic species Desulfovibrionales and Desulfuromonadales [3]: no increases | change in total bacteria, statistical significance [4]: statistically significant increases | SCFA production (metabolic profile) [5]: promoting beneficial SCFA production | increases in pathogenic Clostridium histolyticum [6]: no statistically significant increases | change in acetate concentration ([7]; GC-MS, after treatment vs SS1): no statistically significant changes | change in butyrate concentration ([7]; GC-MS, after treatment vs SS1): no statistically significant changes | change in valerate concentration ([7]; GC-MS, after treatment vs SS1): no statistically significant changes | change in lactate concentration [7, 25]: increases measured | change in propionate concentration [7, 25]: increases measured | Clostridium species, of total bacterial species detected [8]: 4.5% | toxicity ([9]; 10 mg/kg, 60 days, oral gavage): no toxicity was observed | blood glucose levels ([9]; HGD+7KLCA vs CTRL 3 (HGD), after 60 days): significantly lower | HDL cholesterol levels [9, 26]: slight, though not significant, increase | LDL cholesterol levels [9, 26]: significantly reduced | total cholesterol levels [9, 26]: significantly reduced | weight gain ([9]; after switch to HGD diet (days 30-60), 10 mg/kg/day, CTRL 3 gained significantly more): gained a similar amount of weight to the mice on the normal diet | weight gains ([9]; initial 30-day period on standard diet, treated group vs CTRL 3): no significant difference | insulin levels ([9]; normal diet 30 days followed by HGD diet 30 days): trend of increased insulin levels | weight gains ([9]; normal diet 60 days, 10 mg/kg oral gavage (CTRL 2) vs CTRL 1): no significant difference | blood glucose levels [9, 27]: no significant difference | levels of HDL cholesterol [9, 27]: no significant difference | levels of LDL cholesterol [9, 27]: no significant difference | levels of total cholesterol [9, 27]: no significant difference | change in Roseburia spp. between baseline and after treatment [10]: increase | increases in pathogenic Streptococcus [11]: no statistically significant increases | numbers of total bacteria after treatment versus Baseline ([12]; all three regions of the model, not significant): greater | total bacteria (EUB-I-II-III) after treatment [12]: 9.35±0.16 Log10 CFU/mL | alanine in 1H NMR spectrum ([13]; after treatment): detected | acetate peaks in 1H NMR spectrum ([13]; after vs before treatment): higher peaks | bacterial metabolite iso-leucine in 1H NMR spectrum ([13]; after vs before treatment): presence after treatment | bacterial metabolite leucine in 1H NMR spectrum ([13]; after vs before treatment): presence after treatment | propionate peaks in 1H NMR spectrum ([13]; after vs before treatment): higher peaks | peaks of butyrate in 1H NMR spectrum ([13]; after vs prior to treatment): greater | increase in Bifidobacterium spp. (Bif164) between Baseline and after treatment, statistical significance ([14]; 3-stage gut model): no statistically significant increases | observed change in Bifidobacterium spp. numbers after treatment ([14]; across all three stages (V1, 2 and 3)): observed increase | Bifidobacterium spp. (Bif164) numbers after treatment ([14]; transverse region, Baseline Log 10 7.54±1.06 CFU/mL): 8.16±0.13 Log 10 CFU/mL | increases in pathogenic Desulfovibrionales [15]: no statistically significant increases | change in Eubacterium rectale between baseline and after treatment [16]: increase | Bacteroides-Prevotella population numbers after treatment ([17]; distal region (V3)): 7.69±0.15 Log10 CFU/mL | Bacteroides-Prevotella (BAC303) population numbers after treatment [17]: 8.47±0.24 Log10 CFU/mL | change in numbers of Faecalibacterium prausnitzii between baseline and after treatment ([18]; 7KLCA: V2 and V3): statistically significant increases | numbers of Faecalibacterium prausnitzii after treatment ([18]; V2, baseline Log10 7.47±0.91 CFU/mL): 8.81±0.09 Log10 CFU/mL | numbers of Faecalibacterium prausnitzii after treatment ([18]; V3, baseline Log10 6.95±0.97 CFU/mL): 8.39±0.22 Log10 CFU/mL | abundance of F. prausnitzii ([19]; V3 (distal colon), from 0.6%): 10% | abundance of Faecalibacterium prausnitzii ([19]; proximal region of the colon (V1), before 4%): 17% | abundance of F. prausnitzii, of total bacterial composition ([19]; transverse region of the colon (V2)): 18% | abundance of Bifidobacterium spp. [20]: 5% | abundance of Eubacterium rectale [21]: 18% | abundance of Eubacterium eligens ([22]; V1): 2% | abundance of Eubacterium eligens ([22]; V2): 5% | abundance of Eubacterium eligens ([22]; V3): 2% | Dialister pneumosintes, percentage of total bacteria composition ([23]; distal colon (V3)): 3% | Dialister pneumosintes, percentage of total bacteria composition ([23]; transverse colon (V2)): 3% | abundance of Bacteroides xylanisolvens [24]: 9%

C[C@H](CCC(=O)O)[C@H]1CC[C@H]2[C@@H]3[C@@H](O)C[C@@H]4C[C@H](O)CC[C@]4(C)[C@H]3CC[C@]12C [UDCA, ursodeoxycholic acid, reference compound]
total bacteria (EUB-I-II-III) after treatment [12]: 8.74±0.50 Log10 CFU/mL | Bacteroides-Prevotella (BAC303) population numbers after treatment [17]: 6.94±0.33 Log10 CFU/mL
